Test results taken from patent US20240383905A1, “FGFR INHIBITORS AND METHODS OF USE THEREOF” (3H PHARMACEUTICALS CO., LTD., priority 2021, published 2024).

Assays:
FGFR2 = target: T1, FGFR2 (Homo sapiens, UniProt P21802); assay: FGFR2 Biochemical Caliper Assay (KinEASE-TK kit); settings: 0.07 nM FGFR2; compound incubated with protein 10 min, reaction 45 min at RT; read-out: FGFR2 Cliper IC50
T1 construct: purchased Carna 08-134

FGFR1 = target: T2, FGFR1 (Homo sapiens, UniProt P11362); assay: FGFR1 Biochemical Caliper Assay (KinEASE-TK kit); settings: ratio FGFR1/FGFR2 of the biochemical assay
T2 construct: purchased Carna 08-133
How it was run: (§1)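 KinEASE-TK HTRF readout: enzyme at 0.2 nM (FGFR1, FGFR3) preincubated 10 min at RT with 10-point 3-fold compound dilutions before TK-substrate/ATP start.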

FGFR3 = target: T3, FGFR3 (Homo sapiens, UniProt P22607); assay: FGFR3 Biochemical Caliper Assay (KinEASE-TK kit); settings: ratio FGFR3/FGFR2 of the biochemical assay
T3 construct: purchased Carna 08-135
How it was run: as §1

SNU16 cells = assay: SNU16 Cancer Cell Line Proliferation Assay (CellTiter-Glo); format: cell-based; settings: Homo sapiens, SNU-16, 72 h
How it was run: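 Luminescent ATP read-out after 72 h at 37 °C gave IC50 values; compounds tested as 9 three-fold serial dilutions on 5000 SNU16 cells per well, with DMSO as control.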

[1] = Pharmacokinetics in SD Rat; format: in vivo, Sprague-Dawley (SD) rat; settings: Sprague-Dawley, male SD rat, plasma; for clearance: IV 3 mg/kg; for AUC(0-inf) / half-life / Cmax: PO 15 mg/kg (IV used for Clearance); for Cmax: read-out: Cmax
Protocol: Animal studies were done as approved protocols by the Institutional Animal Care and Use Committee at INVIVO Biotech Co., Ltd.
Animal information: Sprague-Dawley (SD) rat, SPF, 6-8 weeks, Male, weight 200-250 g, purchased from Beijing Vital River Lab (Beijing, People's Republic of China).
Formulation: Prepare 1.5 mg/ml and 0.6 mg/ml compound solution in […](20% HPβCD) for PO and IV respectively, dosing immediately after preparation.
Administration: PO and IV;

T2 sequence (P11362 22-822): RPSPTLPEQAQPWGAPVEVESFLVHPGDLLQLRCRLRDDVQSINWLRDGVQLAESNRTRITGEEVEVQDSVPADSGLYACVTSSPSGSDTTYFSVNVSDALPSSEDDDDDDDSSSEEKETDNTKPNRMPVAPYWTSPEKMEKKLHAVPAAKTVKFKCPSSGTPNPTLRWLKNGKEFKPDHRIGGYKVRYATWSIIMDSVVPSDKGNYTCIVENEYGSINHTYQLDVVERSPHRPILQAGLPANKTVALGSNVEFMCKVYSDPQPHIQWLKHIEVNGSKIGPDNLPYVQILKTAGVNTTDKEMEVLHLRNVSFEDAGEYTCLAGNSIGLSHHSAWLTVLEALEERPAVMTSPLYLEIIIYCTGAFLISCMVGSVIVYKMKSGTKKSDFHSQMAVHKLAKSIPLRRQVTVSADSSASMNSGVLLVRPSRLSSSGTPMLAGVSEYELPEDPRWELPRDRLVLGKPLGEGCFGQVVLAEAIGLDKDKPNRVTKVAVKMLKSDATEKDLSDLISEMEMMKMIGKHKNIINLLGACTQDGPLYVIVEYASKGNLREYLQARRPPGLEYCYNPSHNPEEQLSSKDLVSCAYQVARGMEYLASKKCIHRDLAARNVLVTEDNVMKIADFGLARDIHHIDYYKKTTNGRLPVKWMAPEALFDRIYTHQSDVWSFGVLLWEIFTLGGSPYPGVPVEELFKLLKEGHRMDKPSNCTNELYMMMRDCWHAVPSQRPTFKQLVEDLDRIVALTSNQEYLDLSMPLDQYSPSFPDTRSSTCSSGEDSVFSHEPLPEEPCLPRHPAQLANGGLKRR
T1 sequence (P21802 22-821): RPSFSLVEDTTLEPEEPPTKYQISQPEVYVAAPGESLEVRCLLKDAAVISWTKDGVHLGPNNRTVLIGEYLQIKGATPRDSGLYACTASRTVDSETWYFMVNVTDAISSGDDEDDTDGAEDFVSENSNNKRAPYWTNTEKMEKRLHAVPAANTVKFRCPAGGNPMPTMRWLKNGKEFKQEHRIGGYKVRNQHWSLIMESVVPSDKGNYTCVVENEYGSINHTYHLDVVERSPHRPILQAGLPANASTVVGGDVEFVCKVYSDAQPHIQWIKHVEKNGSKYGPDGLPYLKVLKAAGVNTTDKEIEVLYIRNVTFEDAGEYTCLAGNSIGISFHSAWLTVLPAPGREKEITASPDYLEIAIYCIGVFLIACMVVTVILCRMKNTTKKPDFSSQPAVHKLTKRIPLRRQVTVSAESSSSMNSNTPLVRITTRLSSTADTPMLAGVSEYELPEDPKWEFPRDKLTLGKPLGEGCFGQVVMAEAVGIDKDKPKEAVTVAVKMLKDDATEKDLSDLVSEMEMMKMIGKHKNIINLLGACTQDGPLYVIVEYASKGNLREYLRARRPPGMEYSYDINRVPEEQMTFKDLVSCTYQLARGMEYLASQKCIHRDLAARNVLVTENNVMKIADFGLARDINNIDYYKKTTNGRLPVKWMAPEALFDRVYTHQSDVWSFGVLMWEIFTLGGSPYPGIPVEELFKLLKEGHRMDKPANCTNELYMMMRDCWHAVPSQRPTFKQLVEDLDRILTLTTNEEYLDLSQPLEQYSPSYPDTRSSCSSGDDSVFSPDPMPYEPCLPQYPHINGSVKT
T3 sequence (P22607 23-806): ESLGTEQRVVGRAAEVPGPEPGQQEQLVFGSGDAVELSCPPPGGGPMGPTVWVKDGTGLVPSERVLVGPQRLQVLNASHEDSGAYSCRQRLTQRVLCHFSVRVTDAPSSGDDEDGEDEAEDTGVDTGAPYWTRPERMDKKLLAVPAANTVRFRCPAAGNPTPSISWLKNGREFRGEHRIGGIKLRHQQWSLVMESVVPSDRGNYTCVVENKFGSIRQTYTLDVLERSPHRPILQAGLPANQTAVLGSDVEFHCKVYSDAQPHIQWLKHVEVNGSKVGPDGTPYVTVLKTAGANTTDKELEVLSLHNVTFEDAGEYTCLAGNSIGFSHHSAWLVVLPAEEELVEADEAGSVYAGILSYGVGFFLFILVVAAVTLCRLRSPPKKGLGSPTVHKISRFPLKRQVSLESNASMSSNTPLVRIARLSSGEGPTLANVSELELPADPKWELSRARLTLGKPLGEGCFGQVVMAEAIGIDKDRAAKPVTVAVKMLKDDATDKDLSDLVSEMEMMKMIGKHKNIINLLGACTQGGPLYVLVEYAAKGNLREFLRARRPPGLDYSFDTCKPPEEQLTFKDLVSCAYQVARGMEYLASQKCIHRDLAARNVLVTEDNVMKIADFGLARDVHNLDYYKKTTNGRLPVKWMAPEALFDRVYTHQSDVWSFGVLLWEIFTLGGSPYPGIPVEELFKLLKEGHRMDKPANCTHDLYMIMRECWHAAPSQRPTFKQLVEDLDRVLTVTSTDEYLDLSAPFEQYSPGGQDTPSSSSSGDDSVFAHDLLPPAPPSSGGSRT

| Structure (SMILES) | IC50 (FGFR2) | Selectivity FGFR1/FGFR2 (FGFR1) | Selectivity FGFR3/FGFR2 (FGFR3) | IC50 (SNU16 cells) | clearance [1] | AUC(0-inf) [1] | half-life [1] | Cmax [1] |
| --- | --- | --- | --- | --- | --- | --- | --- | --- |
| C=C(F)C(=O)Nc1ccc(-c2nn3ncnc(N)c3c2-c2ccc(C(=O)NCC3(C(F)(F)F)CC3)c(OC)c2)cc1 [Compound 309] | 5 to 10 nM | A+ (Selectivity of FGFR1/FGFR2 greater or equal to 500) | A+ (Selectivity of FGFR3/FGFR2 greater or equal to 150) | ≤ 10 nM | 11 mL/min/kg | 3100 ng·h/mL | 2.6 h | 957 ng/mL |
| C=C(F)C(=O)Nc1ccc(-c2nn3ncnc(N)c3c2-c2ccc(C(=O)NC34CC(F)(C3)C4)c(OC)c2)cc1 [Compound 330] | > 10 nM | A+ (Selectivity of FGFR1/FGFR2 greater or equal to 500) | A+ (Selectivity of FGFR3/FGFR2 greater or equal to 150) | ≤ 10 nM | 6.1 mL/min/kg | 1820 ng·h/mL | 2.4 h | 509 ng/mL |
| C=C(F)C(=O)Nc1ccc(-c2[nH]c3c(C#N)cnc(N)c3c2-c2ccc(C(=O)NC3CC3)c(OC)c2)cc1 [Compound 235, 4-(4-amino-7-cyano-2-(4-(2-fluoroacrylamido)phe-nyl)-1H-pyrrolo[3,2-c]pyridin-3-yl)-N-cyclopropyl-2-methoxybenzamide] | < 5 nM | A+ (Selectivity of FGFR1/FGFR2 greater or equal to 500) | A+ (Selectivity of FGFR3/FGFR2 greater or equal to 150) | ≤ 10 nM | 5.4 mL/min/kg | 2070 ng·h/mL | 1.3 h | 442 ng/mL |
| C=C(F)C(=O)Nc1ccc(-c2c(-c3ccc(C(=O)NCC(F)(F)F)c(OC)c3)c3c(N)ncc(C#N)c3n2C)cc1 [Compound 96, 4-(4-amino-7-cyano-2-(4-(2-fluoroacrylamido)phenyl)-1-methyl-1H-pyrrolo[3,2-c]pyridine-3-yl)-2-methoxy-N-(2,2,2-trifluoroethyl)benzamide] | < 5 nM | A+ (Selectivity of FGFR1/FGFR2 greater or equal to 500) | A+ (Selectivity of FGFR3/FGFR2 greater or equal to 150) | ≤ 10 nM | 3.1 mL/min/kg | 2700 ng·h/mL | 6 h | 621 ng/mL |
